Results on 18 compounds are retold here after patent publication US11464770B2, “Anticancer pharmaceutical composition” (NATIONAL CANCER CENTER, priority 2016, dated 2022).

The test system of this test is breast cancer cell lines (e.g. MDA-MB-231, SK-BR-3, MDA-MB-468, HCC1954). Put plainly: Cell based assay, cell viability (CellTiter-Glo), breast cancer cell lines. To be noted: 72 hours, CellTiter-Glo. The method in brief: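 Read-out is ATP-dependent luminescence (CellTiter-Glo) taken after 72 h of exposure to compound at final concentrations from 0 to 2 μM. Cells were plated 24 h beforehand.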
For orientation: ATP-based viability assays read luminescence as a measure of living cells.

The mark [1] stands for this setting: Breast cancer cell line MDA-MB-231-L/DOX, read-out: IC50, MDA-MB-231-L/DOX.
Setting [2] is: Homo sapiens, Breast cancer cell line BT-20, read-out: IC50, BT-20.
Setting [3] is: Homo sapiens, Breast cancer cell line HCC1395, read-out: IC50, HCC1395.
Where [4] appears, read: Homo sapiens, Breast cancer cell line HCC1954, read-out: IC50, HCC1954.
Setting [5] is: Homo sapiens, Breast cancer cell line JIMT-1, read-out: IC50, JIMT-1.
The mark [6] stands for this setting: Homo sapiens, Breast cancer cell line MCF7, read-out: IC50, MCF7.
Where [7] appears, read: Homo sapiens, Breast cancer cell line MDA-MB-231, read-out: IC50, MDA-MB-231.
The mark [8] stands for this setting: Homo sapiens, Breast cancer cell line MDA-MB-468, read-out: IC50, MDA-MB-468.
[9] abbreviates: Homo sapiens, Breast cancer cell line SK-BR-3, read-out: IC50, SK-BR-3.

Each structure is given as a SMILES string. pIC50: −log10 of the molar value. Like-named read-outs stand apart in the source and are kept apart here.

For the compound `CC(=O)c1c([S+]([O-])Cc2ccc(F)cc2F)[nH]c2c(Br)ccc(Cl)c2c1=O` (stereo not drawn) [Compound 29, 3-acetyl-8-bromo-5-chloro-2-((2,4-difluorobenzyl)sulfinyl)quinolin-4(1H)-one], the pIC50 is, setting by setting: under setting [1], under 5.70; under setting [2], under 5.70; under setting [3], under 5.00; under setting [4], under 5.70; under setting [5], under 5.00; under setting [6], under 5.70. Further, the pIC50 by setting is: under setting [7], under 5.70; under setting [8], under 5.70; under setting [9], 6.07.
Take `CC(=O)c1c([S+]([O-])Cc2ccc(F)c(Cl)c2)[nH]c2c(Br)ccc(Cl)c2c1=O` (stereo not drawn) [Compound 31, 3-acetyl-8-bromo-5-chloro-2-((3-chloro-4-fluorobenzyl)sulfinyl)quinolin-4(1H)-one]: the pIC50 by setting is: under setting [1], under 5.70; under setting [2], under 5.70; under setting [3], under 5.00; under setting [4], under 5.70; under setting [5], under 5.00; under setting [6], under 5.70. The pIC50 is, setting by setting: under setting [7], 5.88; under setting [8], under 5.70; under setting [9], 6.02.
As for `CC(=O)c1c([S+]([O-])Cc2ccc([N+](=O)[O-])cc2)[nH]c2c(Br)ccc(Cl)c2c1=O` (stereo not drawn) [Compound 33, 3-acetyl-8-bromo-5-chloro-2-((4-nitrobenzyl)sulfinyl)quinolin-4(1H)-one], the pIC50 by setting is: under setting [1], under 5.70; under setting [2], under 5.70; under setting [3], under 5.00; under setting [4], under 5.70; under setting [5], under 5.00; under setting [6], under 5.70. The pIC50 under setting [7] was under 5.70, the pIC50 under setting [8] is under 5.70 and the pIC50 under setting [9] is 6.00.
For the compound `CC(=O)c1c(S(=O)(=O)Cc2ccccc2)[nH]c2c(Br)ccc(Cl)c2c1=O` [Compound 34, 3-acetyl-2-(benzylsulfonyl)-8-bromo-5-chloroquinolin-4(1H)-one], the pIC50 under setting [1] is under 5.70; the pIC50 under setting [2] is under 5.70; the pIC50 under setting [3] is under 5.00; the pIC50 under setting [4] is under 5.70; the pIC50 under setting [5] is under 5.00; the pIC50 under setting [6] was under 5.70. Also, the pIC50 is under 5.70 under setting [7], under 5.70 under setting [8] and 5.90 under setting [9].
For the compound `CC(=O)c1c([S+]([O-])Cc2cc(Cl)ccc2Cl)[nH]c2c(Br)ccc(Cl)c2c1=O` (stereo not drawn) [Compound 44, 3-acetyl-8-bromo-5-chloro-2-((2,5-dichlorobenzyl)sulfinyl)quinolin-4(1H)-one], the pIC50 was under 5.70 under setting [1]; under 5.70 under setting [2]; under 5.00 under setting [3]; under 5.70 under setting [4]; under 5.00 under setting [5]; under 5.70 under setting [6]. The pIC50 is, setting by setting: under setting [7], under 5.70; under setting [8], under 5.70; under setting [9], 5.97.
Regarding `CC(=O)c1c([S+]([O-])Cc2cc(F)cc(F)c2)[nH]c2c(Br)ccc(Cl)c2c1=O` (stereo not drawn) [Compound 46, 3-acetyl-8-bromo-5-chloro-2-((3,5-difluorobenzyl)sulfinyl)quinolin-4(1H)-one], the pIC50 under setting [1] is under 5.70; the pIC50 under setting [2] is under 5.70; the pIC50 under setting [3] was under 5.00; the pIC50 under setting [4] was under 5.70; the pIC50 under setting [5] was under 5.00; the pIC50 under setting [6] is under 5.70. Also, the pIC50 is, setting by setting: under setting [7], under 5.70; under setting [8], under 5.70; under setting [9], 5.94.
Regarding `CC(=O)c1c([S+]([O-])Cc2cccc(F)c2)[nH]c2c(Br)ccc(Cl)c2c1=O` (stereo not drawn) [Compound 50, 3-acetyl-8-bromo-5-chloro-2-((3-fluorobenzyl)sulfinyl)quinolin-4(1H)-one], the pIC50 runs as follows: under setting [1], under 5.70; under setting [2], under 5.70; under setting [3], under 5.00; under setting [4], under 5.70; under setting [5], under 5.00; under setting [6], under 5.70. Besides, the pIC50 by setting is: under setting [7], under 5.70; under setting [8], under 5.70; under setting [9], 6.00.
Take `CC(=O)c1c([S+]([O-])Cc2cc(C)on2)[nH]c2c(Br)ccc(Cl)c2c1=O` (stereo not drawn) [Compound 51, 3-acetyl-8-bromo-5-chloro-2-(((5-methylisoxazol-3-yl)methyl)sulfinyl)quinolin-4(1H)-one]: the pIC50 runs as follows: under setting [1], under 5.70; under setting [2], under 5.70; under setting [3], under 5.00; under setting [4], under 5.70; under setting [5], under 5.00; under setting [6], under 5.70. Moreover, the pIC50 was 5.81 under setting [7], under 5.70 under setting [8] and 6.27 under setting [9].
As to `COc1cccc(C[S+]([O-])c2[nH]c3c(Br)ccc(Cl)c3c(=O)c2C(C)=O)c1` (stereo not drawn) [Compound 55, 3-acetyl-8-bromo-5-chloro-2-((3-methoxybenzyl)sulfinyl)quinolin-4(1H)-one], the pIC50 by setting is: under setting [1], under 5.70; under setting [2], under 5.70; under setting [3], under 5.00; under setting [4], under 5.70; under setting [5], under 5.00; under setting [6], under 5.70. Also, the pIC50 under setting [7] is under 5.70, the pIC50 under setting [8] was under 5.70 and the pIC50 under setting [9] was 5.96.
As for `CC(=O)c1c([S+]([O-])Cc2ccc(SC(F)(F)F)cc2)[nH]c2c(Br)ccc(Cl)c2c1=O` (stereo not drawn) [Compound 56, 3-acetyl-8-bromo-5-chloro-2-((4-((trifluoromethyl)thio)benzyl)sulfinyl)quinolin-4(1H)-one], the pIC50 is under 5.70 under setting [1]; under 5.70 under setting [2]; under 5.00 under setting [3]; 5.83 under setting [4]; under 5.00 under setting [5]; under 5.70 under setting [6]. The pIC50 reads like this: under setting [7], 5.84; under setting [8], 5.79; under setting [9], 5.86.
With `CC(=O)c1c([S+]([O-])Cc2ccc([N+](=O)[O-])cc2)[nH]c2c(Cl)ccc(Cl)c2c1=O` (stereo not drawn) [Compound 57, 3-acetyl-5,8-dichloro-2-((4-nitrobenzyl)sulfinyl)quinolin-4(1H)-one], the pIC50 reads like this: under setting [1], under 5.70; under setting [2], under 5.70; under setting [3], under 5.00; under setting [4], under 5.70; under setting [5], under 5.00; under setting [6], under 5.70. Besides, the pIC50 is under 5.70 under setting [7], under 5.70 under setting [8] and 5.87 under setting [9].
Take `COc1cc(C[S+]([O-])c2[nH]c3c(Br)ccc(Cl)c3c(=O)c2C(C)=O)cc(OC)c1` (stereo not drawn) [Compound 59, 3-acetyl-8-bromo-5-chloro-2-((3,5-dimethoxybenzyl)sulfinyl)quinolin-4(1H)-one]: the pIC50 is under 5.70 under setting [1]; under 5.70 under setting [2]; under 5.00 under setting [3]; under 5.70 under setting [4]; under 5.00 under setting [5]; under 5.70 under setting [6]. For the same compound, the pIC50 under setting [7] was under 5.70, the pIC50 under setting [8] was under 5.70 and the pIC50 under setting [9] was 5.97.
`CC(=O)c1c([S+]([O-])Cc2ccc(C(C)(C)C)cc2)[nH]c2c(Br)ccc(Cl)c2c1=O` (stereo not drawn) [Compound 60, 3-acetyl-8-bromo-2-((4-(tert-butyl)benzyl)sulfinyl)-5-chloroquinolin-4(1H)-one]: the pIC50 under setting [1] is under 5.70; the pIC50 under setting [2] is under 5.70; the pIC50 under setting [3] is under 5.00; the pIC50 under setting [4] is under 5.70; the pIC50 under setting [5] is under 5.00; the pIC50 under setting [6] was under 5.70. In addition, the pIC50 is under 5.70 under setting [7], under 5.70 under setting [8] and 5.73 under setting [9].
In the case of `CC(=O)c1c([S+]([O-])Cc2ccc([S+]([O-])C(F)(F)F)cc2)[nH]c2c(Br)ccc(Cl)c2c1=O` (stereo not drawn) [Compound 64, 3-acetyl-8-bromo-5-chloro-2-((4-((trifluoromethyl)sulfinyl)benzyl)sulfinyl)quinolin-4(1H)-one], the pIC50 under setting [1] is under 5.70; the pIC50 under setting [2] was under 5.70; the pIC50 under setting [3] is under 5.00; the pIC50 under setting [4] is under 5.70; the pIC50 under setting [5] is under 5.00; the pIC50 under setting [6] was under 5.70. Moreover, the pIC50 is, setting by setting: under setting [7], under 5.70; under setting [8], under 5.70; under setting [9], 5.99.
With `CC(=O)c1c([S+]([O-])Cc2ccc(C(F)(F)F)cc2)[nH]c2c(Br)ccc(Cl)c2c1=O` (stereo not drawn) [Compound 70, 3-acetyl-8-bromo-5-chloro-2-((4-(trifluoromethyl)benzyl)sulfinyl)quinolin-4(1H)-one], the pIC50 reads like this: under setting [1], under 5.70; under setting [2], under 5.70; under setting [3], under 5.00; under setting [4], under 5.70; under setting [5], under 5.00; under setting [6], under 5.70. Besides, the pIC50 is, setting by setting: under setting [7], under 5.70; under setting [8], under 5.70; under setting [9], 5.92.
Regarding `CC(=O)c1c([S+]([O-])Cc2ccc(OC(F)(F)F)cc2)[nH]c2c(Br)ccc(Cl)c2c1=O` (stereo not drawn) [Compound 71, 3-acetyl-8-bromo-5-chloro-2-((4-(trifluoromethoxy)benzyl)sulfinyl)quinolin-4(1H)-one], the pIC50 by setting is: under setting [1], under 5.70; under setting [2], under 5.70; under setting [3], under 5.00; under setting [4], under 5.70; under setting [5], under 5.00; under setting [6], under 5.70. Also, the pIC50 under setting [7] was under 5.70, the pIC50 under setting [8] was under 5.70 and the pIC50 under setting [9] was 5.81.
Regarding `CC(=O)c1c([S+]([O-])Cc2ccc(C(F)(F)F)o2)[nH]c2c(Br)ccc(Cl)c2c1=O` (stereo not drawn) [Compound 72, 3-acetyl-8-bromo-5-chloro-2-(((5-(trifluoromethyl)furan-2-yl)methyl)sulfinyl)quinolin-4(1H)-one], the pIC50 under setting [1] was under 5.70; the pIC50 under setting [2] is under 5.70; the pIC50 under setting [3] was under 5.70; the pIC50 under setting [4] is under 5.70; the pIC50 under setting [5] was under 5.70; the pIC50 under setting [6] was under 5.70. Also, the pIC50 under setting [7] is 5.86, the pIC50 under setting [8] was under 5.70 and the pIC50 under setting [9] was 6.07.
On to `CC(=O)c1c([S+]([O-])Cc2ccc(C#N)cc2)[nH]c2c(Br)ccc(Cl)c2c1=O` (stereo not drawn) [Compound 73, 4-(((3-acetyl-8-bromo-5-chloro-4-oxo-1,4-dihydroquinolin-2-yl)sulfinyl)methyl)benzonitrile], for which the pIC50 under setting [1] is under 5.70; the pIC50 under setting [2] was under 5.70; the pIC50 under setting [3] is under 5.00; the pIC50 under setting [4] was under 5.70; the pIC50 under setting [5] was under 5.00; the pIC50 under setting [6] is under 5.70. Further, the pIC50 was under 5.70 under setting [7], under 5.70 under setting [8] and 5.92 under setting [9].
